The values below are quoted from earlier work in patent US20100167989A1, “ISOPROPOXYPHENYLMETHYL INHIBITORS OF SGLT2” (AUSPEX PHARMACEUTICALS, INC., priority 2008, published 2010).

SMILES strings stand for the structures.

One series relates to mice. Particulars: orally administered.
A further series relates to rats. The conditions noted are these: orally administered.

For `CCOC(=O)OC[C@H]1O[C@@H](Oc2nn(C(C)C)c(C)c2Cc2ccc(OC(C)C)cc2)[C@H](O)[C@@H](O)[C@@H]1O` [remogliflozin etabonate, 4-[(4-isopropoxyphenyl)-methyl]-1-isopropyl-5-methyl-1H-pyrazol-3-yl-D-glucopyranoside], the urinary glucose excretion result in the series with mice and in the series on rats was “increased urinary glucose excretion in a dose-dependent manner” each time.
